Reference: ChEMBL document CHEMBL3817844 (Medchemcomm, 2016)

How the values were obtained:
Schistosoma mansoni [1] = test: Antischistosomal activity against adult male Schistosoma mansoni BH derived from infected Swiss mouse assessed as reduction in motility measured after 72 hrs by automated image-based analysis; type: functional, organism-based
Schistosoma mansoni [2] = test: Antischistosomal activity against adult female Schistosoma mansoni BH derived from infected Swiss mouse assessed as reduction in motility measured after 72 hrs by automated image-based analysis; type: functional, organism-based
Schistosoma mansoni [3] = test: Antischistosomal activity against adult male Schistosoma mansoni BH derived from infected Swiss mouse assessed as reduction in motility measured after 48 hrs by automated image-based analysis; type: functional, organism-based
Schistosoma mansoni [4] = test: Antischistosomal activity against newly transformed Schistosoma mansoni BH assessed as decrease in viability after 72 hrs by resazurin-based spectrophotometric assay; type: functional, organism-based
[5] = Inhibition of Schistosoma mansoni SERT
Schistosoma mansoni [6] = test: Antischistosomal activity against adult male Schistosoma mansoni BH derived from infected Swiss mouse assessed as reduction in motility measured after 24 hrs by automated image-based analysis; type: functional, organism-based
Schistosoma mansoni [7] = test: Antischistosomal activity against adult male Schistosoma mansoni BH derived from infected Swiss mouse assessed as reduction in motility measured immediately after treatment by automated image-based analysis; type: functional, organism-based
Schistosoma mansoni [8] = test: Antischistosomal activity against adult female Schistosoma mansoni BH derived from infected Swiss mouse assessed as reduction in motility measured after 24 hrs by automated image-based analysis; type: functional, organism-based
Schistosoma mansoni [9] = test: Antischistosomal activity against adult female Schistosoma mansoni BH derived from infected Swiss mouse assessed as reduction in motility measured after 48 hrs by automated image-based analysis; type: functional, organism-based
Schistosoma mansoni [10] = test: Antischistosomal activity against adult female Schistosoma mansoni BH derived from infected Swiss mouse assessed as reduction in motility measured immediately after treatment by automated image-based analysis; type: functional, organism-based

Row | SMILES | EC50 (Schistosoma mansoni [1]) | EC50 (Schistosoma mansoni [2]) | EC50 (Schistosoma mansoni [3]) | IC50 (Schistosoma mansoni [4]) | IC50 [5] | EC50 (Schistosoma mansoni [6]) | EC50 (Schistosoma mansoni [7]) | EC50 (Schistosoma mansoni [8]) | EC50 (Schistosoma mansoni [9]) | EC50 (Schistosoma mansoni [10])
1 | Fc1ccc([C@@H]2CCNC[C@H]2COc2ccc3c(c2)OCO3)cc1 [PAROXETINE] | 2700 nM | 11900 nM | 3800 nM | 2500 nM | 90 nM | 5100 nM | 23500 nM | 9900 nM | 11500 nM | 17400 nM
2 | O=C(C1CCCCC1)N1CC(=O)N2CCc3ccccc3C2C1 (stereo unspecified) [PRAZIQUANTEL] | – | 660 nM | 130 nM | – | – | 120 nM | 110 nM | 300 nM | – | 130 nM
